Measurements as given in patent US20150175655A1 (priority 2012, published 2015).
pKi: −log10 of the molar value.

The compounds below were run against T1, NS3 genotype 3a protease (UniProt Q81258) (assay: Ki determination, NS3 protease genotype 3a (fluorogenic depsipeptide substrate)). Details: 200 pM enzyme, 20 μM NS4A peptide, 2 μM substrate, read-out: Ki 3A.
T1 construct: Purified NS3 protease domain (amino acids 1-181) of the genotype 1b and 3a virus were generated as above; fused on or other part: N-terminal hexahistidine tag and rTEV protease cleavage site (vector p28-N6H-Tev-NS3(181)3)
T1 sequence (Q81258 1033-1663): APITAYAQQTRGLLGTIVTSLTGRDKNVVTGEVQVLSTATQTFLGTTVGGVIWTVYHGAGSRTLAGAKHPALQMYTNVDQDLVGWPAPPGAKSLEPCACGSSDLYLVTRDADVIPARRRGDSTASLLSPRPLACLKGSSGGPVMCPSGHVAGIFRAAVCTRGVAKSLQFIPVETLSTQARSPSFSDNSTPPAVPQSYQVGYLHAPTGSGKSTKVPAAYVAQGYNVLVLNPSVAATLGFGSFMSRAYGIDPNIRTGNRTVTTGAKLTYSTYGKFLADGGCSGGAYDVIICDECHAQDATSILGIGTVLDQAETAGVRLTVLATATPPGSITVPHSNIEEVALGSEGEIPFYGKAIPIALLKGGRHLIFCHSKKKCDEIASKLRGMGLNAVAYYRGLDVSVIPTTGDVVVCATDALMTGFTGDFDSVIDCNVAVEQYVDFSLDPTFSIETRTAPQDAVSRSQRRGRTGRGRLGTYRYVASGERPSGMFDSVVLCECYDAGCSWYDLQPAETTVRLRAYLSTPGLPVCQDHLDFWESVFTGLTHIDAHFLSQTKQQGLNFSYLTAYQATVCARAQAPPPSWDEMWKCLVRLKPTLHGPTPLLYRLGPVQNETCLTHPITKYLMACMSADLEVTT
Assay type: biochemical, hepatitis C virus
Summary of the method: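 Refolded His-tagged NS3 protease domain (aa 1-181, genotype 3a) at 200 pM with 20 μM NS4A peptide was pre-incubated 1 h at RT with inhibitor (100 nM–5 pM, 3-fold), then 2 μM FRET depsipeptide substrate was added in HEPES/40% glycerol/10% DMSO buffer. Steady-state rates over 90-120 min (ex 340/em 490 nm) versus inhibitor concentration gave Ki.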

Compared with `CC[C@@H]1[C@@H]2CN(C(=O)[C@H](C(C)(C)C)NC(=O)O[C@@H]3C[C@H]3CCCCC(F)(F)c3nc4ccc(C#N)cc4nc3O2)[C@@H]1C(=O)N[C@]1(C(=O)NS(=O)(=O)C2(C)CC2)C[C@H]1C(F)F` [Example 87, (1aR,5S,8S,9S,10R,22aR)-5-tert-butyl-14-cyano-N-[(1R,2R)-2-(difluoromethyl)-1-{[(1-methylcyclopropyl)sulfonyl]carbamoyl}cyclopropyl]-9-ethyl-18,18-difluoro-3,6-dioxo-1,1a,3,4,5,6,9,10,18,19,20,21,22,22a-tetradecahydro-8H-7,10-methanocyclopropa[18,19][1,10,3,6]dioxadiazacyclononadecino[11,12-b]quinoxaline-8-carboxamide], `CC[C@@H]1[C@@H]2CN(C(=O)[C@H](C(C)(C)C)NC(=O)O[C@@H]3C[C@H]3CCCCC(F)c3nc4ccc(OC)cc4nc3O2)[C@@H]1C(=O)N[C@]1(C(=O)NS(=O)(=O)C2(C)CC2)C[C@H]1C(F)F` (stereo partly drawn) [Example 90, (1aR,5S,8S,9S,10R,22aR)-5-tert-butyl-N-[(1R,2R)-2-(difluoromethyl)-1-{[(1-methylcyclopropyl)sulfonyl]carbamoyl}cyclopropyl]-9-ethyl-18-fluoro-14-methoxy-3,6-dioxo-1,1a,3,4,5,6,9,10,18,19,20,21,22,22a-tetradecahydro-8H-7,10-methanocyclopropa[18,19][1,10,3,6]dioxadiazacyclononadecino[11,12-b]quinoxaline-8-carboxamide] is 0.41 log units lower in pKi: 10.30 for the first, 9.89 for the second. The first binds more tightly here.

Compared with `CC[C@@H]1[C@@H]2CN(C(=O)[C@H](C(C)(C)C)NC(=O)O[C@@H]3C[C@H]3CCCCCc3nc4ccc(OC)cc4nc3O2)[C@@H]1C(=O)N[C@]1(C(=O)NS(=O)(=O)C2(C)CC2)C[C@H]1CC(F)F` [Example 67, (1aR,5S,8S,9S,10R,22aR)-5-tert-butyl-N-[(1R,2S)-2-(2,2-difluoroethyl)-1-{[(1-methylcyclopropyl)sulfonyl]carbamoyl}cyclopropyl]-9-ethyl-14-methoxy-3,6-dioxo-1,1a,3,4,5,6,9,10,18,19,20,21,22,22a-tetradecahydro-8H-7,10-methanocyclopropa[18,19][1,10,3,6]dioxadiazacyclononadecino[11,12-b]quinoxaline-8-carboxamide], `CC[C@@H]1[C@@H]2CN(C(=O)[C@H](C(C)(C)C)NC(=O)O[C@@H]3C[C@H]3CCCCCc3nc4ccc(OC)cc4nc3O2)[C@@H]1C(=O)N[C@]1(C(=O)NS(=O)(=O)C2(C)CC2)C[C@H]1C` [Example 73, (1aR,5S,8S,9S,10R,22aR)-5-tert-butyl-9-ethyl-14-methoxy-N-[(1R,2R)-2-methyl-1-{[(1-methylcyclopropyl)sulfonyl]carbamoyl}cyclopropyl]-3,6-dioxo-1,1a,3,4,5,6,9,10,18,19,20,21,22,22a-tetradecahydro-8H-7,10-methanocyclopropa[18,19][1,10,3,6]dioxadiazacyclononadecino[11,12-b]quinoxaline-8-carboxamide] is 0.40 log units lower in pKi: 9.49 for the first, 9.09 for the second. The first binds more tightly here.

Going from `CC[C@@H]1[C@@H]2CN(C(=O)[C@H](C(C)(C)C)NC(=O)O[C@@H]3[C@H]4CC[C@H](C4)[C@H]3CCCCCc3nc4ccc(OC)cc4nc3O2)[C@@H]1C(=O)N[C@]1(C(=O)NS(=O)(=O)C2(C)CC2)C[C@H]1C(F)F` [Example 37, (1R,4S,4aR,8S,11S,12S,13R,25aR)-8-tert-butyl-N-[(1R,2R)-2-(difluoromethyl)-1-{[(1-methylcyclopropyl)sulfonyl]carbamoyl}cyclopropyl]-12-ethyl-17-methoxy-6,9-dioxo-2,3,4,4a,6,7,8,9,12,13,21,22,23,24,25,25a-hexadecahydro-1H,11H-1,4:10,13-dimethanoquinoxalino[2,3-k][1,10,3,6]benzodioxadiazacyclononadecine-11-carboxamide] to `CC[C@@H]1[C@@H]2CN(C(=O)[C@H](C(C)(C)C)NC(=O)O[C@@H]3C[C@H]3CCCCCc3nc4ccc(OC)cc4nc3O2)[C@@H]1C(=O)N[C@]1(C(=O)NS(=O)(=O)C2CC2)C[C@H]1CC` [Example 3, (1aR,5S,8S,9S,10R,22aR)-5-tert-butyl-N-{(1R,2R)-1-[(cyclopropylsulfonyl)carbamoyl]-2-ethylcyclopropyl}-9-ethyl-14-methoxy-3,6-dioxo-1,1a,3,4,5,6,9,10,18,19,20,21,22,22a-tetradecahydro-8H-7,10-methanocyclopropa[18,19][1,10,3,6]dioxadiazacyclononadecino[11,12-b]quinoxaline-8-carboxamide], the pKi falls from 9.72 to 9.25 (0.47 log units). The first binds more tightly here.

With `CC[C@@H]1[C@@H]2CN(C(=O)[C@H](C(C)(C)C)NC(=O)O[C@@H]3C[C@H]3CCCCC(F)(F)c3nc4ccccc4nc3O2)[C@@H]1C(=O)N[C@]1(C(=O)NS(=O)(=O)C2CC2)C[C@H]1CC` [Example 54, (1aR,5S,8S,9S,10R,22aR)-5-tert-butyl-N-{(1R,2R)-1-[(cyclopropylsulfonyl)carbamoyl]-2-ethylcyclopropyl}-9-ethyl-18,18-difluoro-3,6-dioxo-1,1a,3,4,5,6,9,10,18,19,20,21,22,22a-tetradecahydro-8H-7,10-methanocyclopropa[18,19][1,10,3,6]dioxadiazacyclononadecino[11,12-b]quinoxaline-8-carboxamide] the pKi was 9.30.

Same assay, conditions: read-out: Ki 3A, 200 pM enzyme, 20 μM NS4A peptide, 2 μM substrate

Compared with `COc1ccc2nc3c(nc2c1)O[C@H]1CN(C(=O)[C@H](C(C)(C)C)NC(=O)O[C@@H]2C[C@@H]4C[C@@H]4[C@H]2CCCCC3)[C@H](C(=O)N[C@]2(C(=O)NS(=O)(=O)C3(C)CC3)C[C@H]2C(F)F)[C@@H]1C` [Example 49, (1aS,2aR,6S,9S,10S,11R,23aR,23bS)-6-tert-butyl-N-[(1R,2R)-2-(difluoromethyl)-1-{[(1-methylcyclopropyl)sulfonyl]carbamoyl}cyclopropyl]-15-methoxy-10-methyl-4,7-dioxo-1a,2,2a,4,5,6,7,10,11,19,20,21,22,23,23a,23b-hexadecahydro-1H,9H-8,11-methanocyclopropa[4′,5′]cyclopenta[1′,2′:18,19][1,10,3,6]dioxadiazacyclononade cino[11,12-b]quinoxaline-9-carboxamide], `COc1ccc2nc3c(nc2c1)O[C@H]1CN(C(=O)[C@H](C(C)(C)C)NC(=O)O[C@@H]2C[C@@H]4C[C@@H]4[C@H]2CCCCC3)[C@H](C(=O)N[C@]2(C(=O)NS(=O)(=O)C3(C)CC3)C[C@H]2CC(F)F)[C@@H]1C` [Example 58, (1aS,2aR,6S,9S,10S,11R,23aR,23bS)-6-tert-butyl-N-[(1R,2S)-2-(2,2-difluoroethyl)-1-{[(1-methylcyclopropyl)sulfonyl]carbamoyl}cyclopropyl]-15-methoxy-10-methyl-4,7-dioxo-1a,2,2a,4,5,6,7,10,11,19,20,21,22,23,23a,23b-hexadecahydro-1H,9H-8,11-methanocyclopropa[4′,5′]cyclopenta[1′,2′:18,19][1,10,3,6]dioxadiazacyclononade cino[11,12-b]quinoxaline-9-carboxamide] is 0.38 log units lower in pKi: 10.15 for the first, 9.77 for the second. The first binds more tightly here.

Compared with `COc1ccc2nc3c(nc2c1)O[C@H]1CN(C(=O)[C@H](C(C)(C)C)NC(=O)O[C@@H]2C[C@H]2CCCCC3)[C@H](C(=O)N[C@]2(C(=O)NS(=O)(=O)C3(C)CC3)C[C@H]2CC(F)F)[C@@H]1C` [Example 25, (1aR,5S,8S,9S,10R,22aR)-5-tert-butyl-N-[(1R,2S)-2-(2,2-difluoroethyl)-1-{[(1-methylcyclopropyl)sulfonyl]carbamoyl}cyclopropyl]-14-methoxy-9-methyl-3,6-dioxo-1,1a,3,4,5,6,9,10,18,19,20,21,22,22a-tetradecahydro-8H-7,10-methanocyclopropa[18,19][1,10,3,6]dioxadiazacyclononadecino[11,12-b]quinoxaline-8-carboxamide], `COc1ccc2nc3c(nc2c1)O[C@H]1CN(C(=O)[C@H](C(C)(C)C)NC(=O)O[C@@H]2C[C@H]2CCCCC3)[C@H](C(=O)N[C@]2(C(=O)NS(=O)(=O)C3CC3)C[C@H]2CC(F)F)[C@@H]1C` [Example 24, (1aR,5S,8S,9S,10R,22aR)-5-tert-butyl-N-[(1R,2S)-1-[(cyclopropylsulfonyl)carbamoyl]-2-(2,2-difluoroethyl)cyclopropyl]-14-methoxy-9-methyl-3,6-dioxo-1,1a,3,4,5,6,9,10,18,19,20,21,22,22a-tetradecahydro-8H-7,10-methanocyclopropa[18,19][1,10,3,6]dioxadiazacyclononadecino[11,12-b]quinoxaline-8-carboxamide] is 0.37 log units lower in pKi: 9.41 for the first, 9.04 for the second. The first binds more tightly here.

`CC[C@@H]1[C@@H]2CN(C(=O)[C@H](C3CCCC3)NC(=O)O[C@@H]3C[C@H]3CCCCCc3nc4ccc(OC)cc4nc3O2)[C@@H]1C(=O)N[C@]1(C(=O)NS(=O)(=O)C2CC2)C[C@H]1C(F)F` [Example 15, (1aR,5S,8S,9S,10R,22aR)-5-cyclopentyl-N-[(1R,2R)-1-[(cyclopropylsulfonyl)carbamoyl]-2-(difluoromethyl)cyclopropyl]-9-ethyl-14-methoxy-3,6-dioxo-1,1a,3,4,5,6,9,10,18,19,20,21,22,22a-tetradecahydro-8H-7,10-methanocyclopropa[18,19][1,10,3,6]dioxadiazacyclononadecino[11,12-b]quinoxaline-8-carboxamide] showed a pKi of 9.52.
